This assay is described as follows: Binding of load molecules to 20PLPEG555C18 carrier (100 kDa filtration, free load by HPLC, Scatchard plot). The note with it: for binding affinity to carrier, in words: strong = Kd less than 100 uM, carrier 20 kDa polylysine, 55% 5 kDa MPEGsuccinate, remainder stearic acid.
[1] abbreviates: Kd to the 20PLPRG555C18, Table 4, read-out: Dissociation Constant (Kd).

Like-named read-outs stand apart in the source and are kept apart here. Where a SMILES comes first, the peptide text is derived from it. Bridges are numbered along the chain shown (N, C = ends). Where only a bound is given, the exact number is not on record here.

Experimental: Load molecules of various concentrations were added to the tubes so that the corresponding weight of load molecules will be between 2 to 30% of the weight of the carrier. To each tube, 25 ul of 10× Phosphate buffered saline was added and the total volume of the solution was made up to 250 ul. The solutions were incubated for 2 hours, followed by filtration through a 100 kDa molecular weight cut-off filter made up of regenerated cellulose (Microcon Ultracell YM-100; Millipore, Bedford, Mass.). The free unbound load molecules in the filtrate were analyzed by reverse phase HPLC using the conditions described above to generate Table 3. The total amount of load molecule loaded or the control is represented by the filtrate of the solution without the carrier. The amount of load molecules bound to the carrier is represented by the difference in the amount of load molecules between the filtrate without the carrier and the filtrate with the carrier. Prior to this analysis, the background filter binding was determined and accounted for whenever significant filter binding was found.

Take `COc1cccc2c1C(=O)c1c(O)c3c(c(O)c1C2=O)C[C@@](O)(C(=O)CO)C[C@@H]3O[C@H]1C[C@H](N)[C@H](O)[C@H](C)O1` [Doxorubicin, reference compound]: the “binding affinity to carrier, in words” value is given as “did not bind with strong affinity”. For the same compound, the Kd under setting [1] is greater than 100 µM. Further, the Kd (Ten mg/ml (30 uM) of Carrier loaded with various concentration of doxorubicin, read-out: apparent Kd (Scatchard plot)) was found to be 315 µM.
As to `NCCCC[C@H](NC(=O)[C@@H]1CCCN1C(=O)[C@@H]1CSSC[C@H](NC(=O)CNC(=O)CNC(=O)CN)C(=O)N[C@@H](Cc2ccc(O)cc2)C(=O)N[C@@H](Cc2ccccc2)C(=O)N[C@@H](CCC(N)=O)C(=O)N[C@@H](CC(N)=O)C(=O)N1)C(=O)NCC(N)=O` [Terlipressin, reference compound] (H-GGGCYFQNCPKG-NH2; disulfide 4-9), the “binding affinity to carrier, in words” value is “does not bind Terlipressin with strong affinity”. Also, the Kd under setting [1] was greater than 100 µM.
As to “Glucagon Like Peptide 2: Glucagon Like Peptide 2 (GLP-2; 3 kDa), load molecule”, under setting [1], the Kd is less than 0.5 µM.
In the case of “Human Growth Hormone: recombinant human growth hormone (26 kDa), load molecule”, the “binding affinity to carrier, in words” value was “does not bind hGH with strong affinity”. Under setting [1], the Kd was greater than 100 µM.
In the case of “Islet Amyloid Polypeptide: Islet Amyloid Polypeptide (IAPP or Amylin; 3.6 kDa), load molecule (KCNTATCATQRLANFLVHSSNNFGAILSSTNVGSNTY; Islet amyloid polypeptide; UniProt P10997 34-70, looked up)”, the “binding affinity to carrier, in words” value was “binds IAPP with strong affinity”. Besides, the Kd under setting [1] was less than 900 µM. Also, the Kd (Ten mg/ml (30 uM) of Carrier, read-out: Kd (Scatchard plot)) was 0.9 µM.
Take Leptin: Leptin (16 kDa), load molecule: the “binding affinity to carrier, in words” value was “binds Leptin with strong affinity”. Moreover, where the note is “33 mg/ml (10 uM) of Carrier, read-out: Kd (Scatchard plot)”, the Kd came out at 0.7 µM. Under setting [1], the Kd is less than 0.8 µM.
For “Vasoactive Intestinal Peptide: Vasoactive Intestinal Peptide (VIP), load molecule”, the “binding affinity to carrier, in words” value is on record as “high affinity”. Moreover, the “binding affinity to carrier, in words” value (listed as VIP) is reported as “binds VIP with strong affinity”.

For the origin of these results see patent US8999930B2, “Soluble hydrophobic core carrier compositions for delivery of therapeutic agents, methods of making and using the same” (PharmaIN Corporation, priority 2008, dated 2015).
